Experimental data: US20210196676A1, “TREATMENT OF VIRAL INFECTIONS AND VIRALLY ASSOCIATED LESIONS WITH SEQUITERPENE LACTONES” (The Board of Regents of the University of Texas System, priority 2018, published 2021)

Tests used:
warts = conditions: human, in vivo; cited from earlier work
HPV = conditions: after three months of treatment, confirmed by smears and biopsies; cited from earlier work
ankle wart = test: Topical treatment of a large ankle wart, case of a person; assay type: in vivo, human
in vitro [1] = conditions: human
in vitro [2] = conditions: human; remark: listed apart in the source

## O=[N+]([O-])[O-].[Ag+] [silver nitrate, Silver nitrate]
warts
  improvement in warts: 26%

## Cc1cccc(C)c1OCC(=O)N[C@@H](Cc1ccccc1)[C@@H](O)C[C@H](Cc1ccccc1)NC(=O)[C@H](C(C)C)N1CCCNC1=O [Lopinavir]
HPV
  women with high-grade disease having normal cervical conditions: 82.6%

## CC(=O)Oc1ccccc1C(=O)O [crushed aspirin, aspirin]
Ankle wart; treatment stopped
  wart after treatment was stopped: regrew
Ankle wart; under a commercial band aid for several weeks
  wart size: slightly reduced in size

## C=C1C(=O)O[C@@H]2C[C@@H](C)[C@@H]3C=CC(=O)[C@@]3(C)[C@@H](O)[C@H]12 (racemic) [H. tox, (±)-4-Hydroxy-4a,8-dimethyl-3,3a,4a,7a,8,9,9a-octahydroazuleno[6,5-b]furan-2,5-dione]
In vitro [1]
  IC50: ~1000 nM
In vitro [2]
  IC50: ~1000 nM
